Measurements published in patent US20040266811A1, “Methods for inducing regeneration, remyelination, and hypermyelination of nervous tissue” (priority 2002, published 2004).

System: PC12 cells co-cultured on monolayers of Schwann cells
Test: GFP-PC12 / Schwann cell co-culture neurite outgrowth
Format: cell-based, Sprague-Dawley rats (Schwann cells)
Settings: GM-284, 48 h
Description: Wild-type and TrkA-overexpressing PC12 cells (Hempstead et al., Overexpression of the trk tyrosine kinase rapidly accelerates nerve growth factor-induced differentiation. Neuron, 9:883-96, 1992) were maintained in DMEM supplemented with 10% calf serum and 5% horse serum, the latter of which was also supplemented with 200 μg/ml G418 to maintain TrkA selection. Cultures were treated with 100 ng/ml NGF or the immunophilin ligands, or treated with Schwann-cell-conditioned medium supplemented with 5% horse serum, as indicated below. To generate GFP-expressing PC12 cells, a bicistronic pCX-bsr retroviral vector (Escalante et al., Phosphorylation of c-Crk II on the negative regulatory Tyr222 mediates nerve growth factor-induced cell spreading and morphogenesis. J. Biol. Chem., 275:24787-797, 2000), which drives expression of green fluorescent protein (GFP), was used to infect dividing PC12 cells.
GFP-expressing virus was produced by lipofectamine-mediated transfection of 1.0 μg of pCX-bsr DNA, together with 1.0 μg of pC-Eco retroviral DNA, into the Bosc23 replication-incompetent ecotropic packaging line (Retromax™, Imgen), according to the manufacturer's protocols. The transfection medium was replaced with 10 ml of DMEM containing 10% fetal calf serum, for 24 h, and then collected and frozen at −70° C. The cells were re-fed with fresh DMEM (10 ml), and maintained for an additional 16 h. […]

Structure (SMILES): CCC(C)(C)C(=O)C(=O)N1CCC[C@H]1c1nnc([C@@H]2CCCN2C(=O)C(=O)C(C)(C)CC)o1 [GM-284]
- neuritogenesis of PC12 cells co-cultured with Schwann cells: extensive neuritogenesis
